# Test results: ChEMBL document CHEMBL3272271, “Folate antagonists. 13. 2,4-Diamino-6-](alpha,alpha,alpha-trifluoro-m-tolyl)thio]quinazoline and related 2,4-diamino-6-[(phenyl- and naphthyl)thio]quinazolines, a unique class of antimetabolites with extraordinary antimalarial and antibacterial effects” (J Med Chem, 1978)
# Active and inactive are the calls of the source. The calls are words filed in the database; no cut-off is given here.
# Key:
# [1] = test system: Plasmodium berghei; assay: Antimalarial activity against Plasmodium berghei infected in mouse assessed as increase in mean survival days of host at 40 mg/kg, sc administered 72 hrs after infection relative to control; format: functional; details: route subcutaneous
# [2] = test system: Plasmodium gallinaceum; assay: Antimalarial activity against trophozoite-induced Plasmodium gallinaceum infected in white leghorn chicken assessed as increase in mean survival days of host at 0.63 mg/kg, sc administered 72 hrs after infection relative to control; format: functional; details: route subcutaneous
# [3] = test system: Plasmodium gallinaceum; assay: Antimalarial activity against sporozoite-induced Plasmodium gallinaceum infected in white leghorn chicken assessed as increase in mean survival days of host at 60 mg/kg, sc administered 72 hrs after infection relative to control; format: functional; details: route subcutaneous
# [4] = test system: Plasmodium berghei; assay: Antimalarial activity against Plasmodium berghei infected in mouse assessed as increase in mean survival days of host at 10 mg/kg, sc administered 72 hrs after infection relative to control; format: functional; details: route subcutaneous
# [5] = test system: Escherichia coli; assay: Antibacterial activity against Escherichia coli Vogel by gradient plate test; format: functional
# [6] = test system: Mycobacterium tuberculosis; assay: Antibacterial activity against Mycobacterium tuberculosis H37Ra by gradient plate test; format: functional
# [7] = test system: Plasmodium berghei; assay: Antimalarial activity against Plasmodium berghei infected in mouse assessed as increase in mean survival days of host at 20 mg/kg, sc administered 72 hrs after infection relative to control; format: functional; details: route subcutaneous
# [8] = test system: Plasmodium berghei; assay: Antimalarial activity against Plasmodium berghei infected in mouse assessed as disease cure from parasite infection at 160 mg/kg, sc administered 72 hrs after infection; format: functional, organism-based; set-up: dose 160 mg/kg
# [9] = test system: Plasmodium gallinaceum; assay: Antimalarial activity against trophozoite-induced Plasmodium gallinaceum infected in white leghorn chicken assessed as increase in mean survival days of host at 1.25 mg/kg, sc administered 72 hrs after infection relative to control; format: functional; details: route subcutaneous
# [10] = test system: Plasmodium gallinaceum; assay: Antimalarial activity against trophozoite-induced Plasmodium gallinaceum infected in white leghorn chicken assessed as increase in mean survival days of host at 2.5 mg/kg, sc administered 72 hrs after infection relative to control; format: functional; details: route subcutaneous
# [11] = test system: Plasmodium berghei; assay: Antimalarial activity against Plasmodium berghei infected in mouse assessed as disease cure from parasite infection at 320 mg/kg, sc administered 72 hrs after infection; format: functional, organism-based; set-up: dose 320 mg/kg
# [12] = test system: Plasmodium berghei; assay: Antimalarial activity against Plasmodium berghei infected in mouse assessed as disease cure from parasite infection at 80 mg/kg, sc administered 72 hrs after infection; format: functional, organism-based; set-up: dose 80 mg/kg
# [13] = test system: Plasmodium gallinaceum; assay: Antimalarial activity against sporozoite-induced Plasmodium gallinaceum infected in white leghorn chicken assessed as increase in mean survival days of host at 30 mg/kg, sc administered 72 hrs after infection relative to control; format: functional; details: route subcutaneous
# [14] = test system: Plasmodium berghei; assay: Antimalarial activity against Plasmodium berghei infected in mouse assessed as disease cure from parasite infection at 40 mg/kg, sc administered 72 hrs after infection; format: functional, organism-based; set-up: dose 40 mg/kg
# [15] = test system: Plasmodium gallinaceum; assay: Antimalarial activity against trophozoite-induced Plasmodium gallinaceum infected in white leghorn chicken assessed as increase in mean survival days of host at 10 mg/kg, sc administered 72 hrs after infection relative to control; format: functional; details: route subcutaneous
# [16] = test system: Plasmodium gallinaceum; assay: Antimalarial activity against sporozoite-induced Plasmodium gallinaceum infected in white leghorn chicken assessed as disease cure from parasite infection at 240 mg/kg, sc administered 72 hrs after infection; format: functional, organism-based; set-up: dose 240 mg/kg
# [17] = test system: Plasmodium berghei; assay: Antimalarial activity against Plasmodium berghei infected in mouse assessed as increase in mean survival days of host at 5 mg/kg, sc administered 72 hrs after infection relative to control; format: functional; details: route subcutaneous
# [18] = test system: Plasmodium gallinaceum; assay: Antimalarial activity against trophozoite-induced Plasmodium gallinaceum infected in white leghorn chicken assessed as increase in mean survival days of host at 20 mg/kg, sc administered 72 hrs after infection relative to control; format: functional; details: route subcutaneous
# [19] = test system: Plasmodium gallinaceum; assay: Antimalarial activity against sporozoite-induced Plasmodium gallinaceum infected in white leghorn chicken assessed as increase in mean survival days of host at 15 mg/kg, sc administered 72 hrs after infection relative to control; format: functional; details: route subcutaneous
# [20] = test system: Plasmodium gallinaceum; assay: Antimalarial activity against sporozoite-induced Plasmodium gallinaceum infected in white leghorn chicken assessed as disease cure from parasite infection at 480 mg/kg, sc administered 72 hrs after infection; format: functional, organism-based; set-up: dose 480 mg/kg
# [21] = test system: Pseudomonas aeruginosa; assay: Antibacterial activity against Pseudomonas aeruginosa 28 by gradient plate test; format: functional
# [22] = test system: Enterococcus faecalis; assay: Antibacterial activity against Streptococcus faecalis MGH-2 by gradient plate test; format: functional
# [23] = test system: Plasmodium gallinaceum; assay: Antimalarial activity against sporozoite-induced Plasmodium gallinaceum infected in white leghorn chicken assessed as disease cure from parasite infection at 30 mg/kg, sc administered 72 hrs after infection; format: functional, organism-based; set-up: dose 30 mg/kg
# [24] = test system: Staphylococcus aureus; assay: Antibacterial activity against drug-resistant Staphylococcus aureus S18713 by gradient plate test; format: functional
# [25] = test system: Staphylococcus aureus; assay: Antibacterial activity against Staphylococcus aureus UC-96 by gradient plate test; format: functional
# [26] = test system: Plasmodium gallinaceum; assay: Antimalarial activity against sporozoite-induced Plasmodium gallinaceum infected in white leghorn chicken assessed as disease cure from parasite infection at 60 mg/kg, sc administered 72 hrs after infection; format: functional, organism-based; set-up: dose 60 mg/kg
# [27] = test system: Plasmodium gallinaceum; assay: Antimalarial activity against trophozoite-induced Plasmodium gallinaceum infected in white leghorn chicken assessed as increase in mean survival days of host at 5 mg/kg, sc administered 72 hrs after infection relative to control; format: functional; details: route subcutaneous
# [28] = test system: Plasmodium berghei; assay: Antimalarial activity against Plasmodium berghei infected in mouse assessed as disease cure from parasite infection at 640 mg/kg, sc administered 72 hrs after infection; format: functional, organism-based; set-up: dose 640 mg/kg
# [29] = test system: Plasmodium gallinaceum; assay: Antimalarial activity against sporozoite-induced Plasmodium gallinaceum infected in white leghorn chicken assessed as increase in mean survival days of host at 120 mg/kg, sc administered 72 hrs after infection relative to control; format: functional; details: route subcutaneous
# [30] = test system: Plasmodium berghei; assay: Antimalarial activity against Plasmodium berghei infected in mouse assessed as increase in mean survival days of host at 1.25 mg/kg, sc administered 72 hrs after infection relative to control; format: functional; details: route subcutaneous
# [31] = test system: Plasmodium gallinaceum; assay: Antimalarial activity against sporozoite-induced Plasmodium gallinaceum infected in white leghorn chicken assessed as disease cure from parasite infection at 120 mg/kg, sc administered 72 hrs after infection; format: functional, organism-based; set-up: dose 120 mg/kg
# [32] = test system: Shigella sonnei; assay: Antibacterial activity against Shigella sonnei C-10 by gradient plate test; format: functional
# [33] = test system: Plasmodium berghei; assay: Antimalarial activity against Plasmodium berghei infected in mouse assessed as increase in mean survival days of host at 2.5 mg/kg, sc administered 72 hrs after infection relative to control; format: functional; details: route subcutaneous
# [34] = test system: Plasmodium berghei; assay: Antimalarial activity against trophozoite-induced Plasmodium berghei infected in mouse assessed as daily dose required to suppression of 90% parasite infection administered with diet for 6 days; format: functional
# [35] = test system: Plasmodium berghei; assay: Antimalarial activity against Plasmodium berghei infected in mouse assessed as increase in mean survival days of host at 80 mg/kg, sc administered 72 hrs after infection relative to control; format: functional; details: route subcutaneous
# [36] = test system: Gallus gallus; assay: Toxicity in sporozoite-induced Plasmodium gallinaceum infected white leghorn chicken assessed as mortality at 480 mg/kg, sc administered 72 hrs after infection measured up to 6 days; format: organism-based; set-up: dose 480 mg/kg, route subcutaneous; details: in vivo
# [37] = test system: Plasmodium berghei; assay: Antimalarial activity against Plasmodium berghei infected in mouse assessed as increase in mean survival days of host at 160 mg/kg, sc administered 72 hrs after infection relative to control; format: functional; details: route subcutaneous
# [38] = test system: Plasmodium gallinaceum; assay: Antimalarial activity against trophozoite-induced Plasmodium gallinaceum infected in white leghorn chicken assessed as increase in mean survival days of host at 160 mg/kg, sc administered 72 hrs after infection relative to control; format: functional; details: route subcutaneous
# [39] = test system: Plasmodium gallinaceum; assay: Antimalarial activity against trophozoite-induced Plasmodium gallinaceum infected in white leghorn chicken assessed as increase in mean survival days of host at 320 mg/kg, sc administered 72 hrs after infection relative to control; format: functional; details: route subcutaneous
# [40] = test system: Plasmodium gallinaceum; assay: Antimalarial activity against sporozoite-induced Plasmodium gallinaceum infected in white leghorn chicken assessed as increase in mean survival days of host at 240 mg/kg, sc administered 72 hrs after infection relative to control; format: functional; details: route subcutaneous
# [41] = test system: Gallus gallus; assay: Toxicity in sporozoite-induced Plasmodium gallinaceum infected white leghorn chicken assessed as mortality at 240 mg/kg, sc administered 72 hrs after infection measured up to 6 days; format: organism-based; set-up: dose 240 mg/kg, route subcutaneous; details: in vivo
# [42] = test system: Plasmodium gallinaceum; assay: Antimalarial activity against trophozoite-induced Plasmodium gallinaceum infected in white leghorn chicken assessed as increase in mean survival days of host at 80 mg/kg, sc administered 72 hrs after infection relative to control; format: functional; details: route subcutaneous
# [43] = test system: Plasmodium gallinaceum; assay: Antimalarial activity against trophozoite-induced Plasmodium gallinaceum infected in white leghorn chicken assessed as increase in mean survival days of host at 40 mg/kg, sc administered 72 hrs after infection relative to control; format: functional; details: route subcutaneous
# [44] = test system: Plasmodium berghei; assay: Antimalarial activity against Plasmodium berghei infected in mouse assessed as increase in mean survival days of host at 320 mg/kg, sc administered 72 hrs after infection relative to control; format: functional; details: route subcutaneous
# [45] = test system: Plasmodium berghei; assay: Ratio of quinine hydrochloride SD90 to compound SD90 for trophozoite-induced Plasmodium berghei infected in mouse assessed as daily dose required to suppression of 90% parasite infection administered with diet for 6 days; format: functional
Compound,MST [1] [days],MST [4] [days],MIC [5] [µg/mL],MST [7] [days],Activity [8],Activity [11],MST [15] [days],MST [17] [days],MST [18] [days],MIC [21] [µg/mL],MIC [22] [µg/mL],MIC [24] [µg/mL],MIC [25] [µg/mL],MST [29] [days],MIC [32] [µg/mL],also measured
Nc1nc(N)c2cc(Sc3cccc(-c4ccccc4)c3)ccc2n1,17.4,8.1,10,11.1,Active,Active,0,7.9,0,> 25,< 0.25,< 0.25,< 0.25,0.3,> 25,MST [2]: 0 days; MST [3]: 0.3 days; MIC [6]: > 25 µg/mL; MST [9]: 0 days; MST [10]: 0 days; Activity [12]: Active; MST [13]: 1 days; Activity [14]: Active; Activity [16]: Active; MST [19]: 0.7 days; Activity [20]: Active; Activity [23]: Active; Activity [26]: Active; MST [27]: 0 days; Activity [28]: Active; MST [30]: 4.5 days; Activity [31]: Active; MST [33]: 5.3 days
Nc1nc(N)c2cc(Sc3ccccc3)ccc2n1,6.3,3.3,< 0.25,4.7,Active,Active,0,1.1,5.6,> 25,< 0.25,< 0.25,< 0.25,2.4,< 0.25,SD90 [34]: 8.2 mg/kg/day; MST [35]: 9.7 days; Activity [36]: Toxic; MST [37]: 14 days; MST [38]: 7.8 days; MST [39]: 11.4 days; MST [40]: 1.6 days; Activity [41]: Toxic; MST [42]: 6.4 days; MST [43]: 6.2 days; MST [44]: 14.7 days; Ratio [45]: 9.1
